From PMC8525948 (Drug Delivery, 2021)
Structures can show the parent of a compound that is named as a salt.

Columns and labels:
[1] = Solubility (loading amount) in 1 g of optimal LBSNENP PC90C10P0
[2] = Droplet size, PDI and appearance of nanoemulsions (LBSNENAs) after self-nanoemulsifying; assay type: physicochemical; details: PC90C10P0 loaded with the named substance at its solubility; 25 °C
Method: After self-nanoemulsifying LBSNENPs were placed in double-distilled (DD) water, the average particle size and size distribution of the so-obtained LBSNENAs were measured at a scattering angle of 90° with an N5 submicron particle size analyzer (Beckman Coulter, Brea, CA) at 25 °C, and the intensity autocorrelation of the sample was in a range of 5 × 10^4–10^6. The average diameter and polydispersity index (PDI) of three measurements were reported. […] Each data point is the mean of at least three individual trials.

[3] = In vitro release, USP dissolution apparatus 2, simulated gastric fluid pH 1.2; assay type: physicochemical; details: for Dissolution from PC90C10P0 in simulated gastric acid solution: within 0.5 h / plateau at 0.5 h, CPT11 40 mg/g, inhibitors 80 mg/g
Method: The temperature of the dissolution medium was maintained at 37 ± 0.5 °C. Aliquots of 5 mL of sample were withdrawn for the assay at predetermined time intervals and replaced with the same volume of fresh medium.

[4] = In vivo pharmacokinetic study in rabbits: plasma CPT11
Method: Plasma samples were stored at −80 °C before the high-performance liquid chromatographic (HPLC) analysis as described below. PK parameters are presented as the mean and standard deviation (SD) from individual rabbits in each group and were estimated through a noncompartmental analysis. The terminal elimination rate constant (Ke) was estimated from the slope of the log-linear phase of declining plasma concentrations of an […] versus time graph. The half-life (T1/2) was calculated using the following equation: T1/2 = ln2/Ke. The area under the concentration-time curve from beginning to the last time point (AUC0→last) was calculated using the trapezoidal method. Summation of AUC0→last and the concentration at the last measured point divided by Ke yielded AUC0→∞. Clearance (CL) was calculated by dividing the dose by AUC0→∞, and the volume of distribution (V) was determined by dividing CL by Ke. The absolute bioavailability (FAB) and relative bioavailability (FRB) were respectively calculated according to Equations (1) and (2), respectively (1) FAB=[AUC]poDIV/[AUC]IVDpo×100 where [AUC]po and [AUC]IV are the area under the plasma concentration curves (AUCs) after oral and intravenous administration. DIV and Dpo are the doses after […] administration, respectively. (2) FRB=[AUC]ADB/[AUC]BDA×100
where AUC for a LBSNENPs formulation [AUC]A and the AUC for the same drug in solution [AUC]B after oral administration were compared. DB and DA are the doses for solution and LBSNENPs formulation, respectively.
After centrifugation at 13,000 rpm for 30 min at 4 °C, 1.2 mL of ethyl acetate was collected, and then subjected to evaporation under N2 gas at 50 °C. The mobile phase (200 μL) was added to reconstitute the dried residual, vortexed for 5 min, and then centrifuged at 10^4 rpm and 25 °C for 3 min. The supernatant (180 µL) was collected, and 50 µL was injected into the HPLC system for analysis.

[5] = background statement, no reference given; cited from earlier work
[6] = New Zealand white, rabbit, in vivo, iv, 4 mg/kg

## O=c1cc(-c2ccccc2)oc2cc(O)c(O)c(O)c12 [BA, Baicalein]
[1]
  Solubility (loading amount) in 1 g of PC90C10P0: 80 mg/g
[2]
  Mean droplet size of nanoemulsion after self-nanoemulsifying: 171.0 ± 6.52 nm
  PDI of nanoemulsion after self-nanoemulsifying: 0.863 ± 0.087
[3]; plateau at 0.5 h, 80 mg/g
  Dissolution from PC90C10P0 in simulated gastric acid solution with 1% Tween 80: not observed
[3]
  Dissolution from PC90C10P0 in simulated gastric acid solution: appeared to be over saturated

## CCc1c2c(nc3ccc(OC(=O)N4CCC(N5CCCCC5)CC4)cc13)-c1cc3c(c(=O)n1C2)COC(=O)[C@]3(O)CC [CPT11, Irinotecan hydrochloride]
[1]
  Solubility (loading amount) in 1 g of PC90C10P0: 40 mg/g
[4]; I.V. (4 mg/kg), reference group
  FAB of CPT11: 100%
[4]; [6]
  AUC(0-inf): 0.287 ± 0.104 µg·h/mL
  AUC(0-t): 0.287 ± 0.104 µg·h/mL
  Cmax: 0.341 ± 0.0986 µg/mL
[2]
  Mean droplet size of nanoemulsion after self-nanoemulsifying: 157.3 ± 2.08 nm
  PDI of nanoemulsion after self-nanoemulsifying: 0.665 ± 0.020
[3]
  Dissolution from PC90C10P0 in simulated gastric acid solution: 100%

## CC1(C)[C@@H](O[C@H]2O[C@H](C(=O)O)[C@@H](O)[C@H](O)[C@H]2O[C@@H]2O[C@H](C(=O)O)[C@@H](O)[C@H](O)[C@H]2O)CC[C@]2(C)[C@H]3C(=O)C=C4[C@@H]5C[C@@](C)(C(=O)O)CC[C@]5(C)CC[C@@]4(C)[C@]3(C)CC[C@@H]12 [GA, glycyrrhizic acid]
[1]
  Solubility (loading amount) in 1 g of PC90C10P0: 200 mg/g
[2]
  Mean droplet size of nanoemulsion after self-nanoemulsifying: 102.1 ± 0.67 nm
  PDI of nanoemulsion after self-nanoemulsifying: 0.602 ± 0.031
[3]
  Dissolution from PC90C10P0 in simulated gastric acid solution: 100%

## CC1(C)[C@@H](O)CC[C@]2(C)[C@H]3C(=O)C=C4[C@@H]5C[C@@](C)(C(=O)O)CC[C@]5(C)CC[C@@]4(C)[C@]3(C)CC[C@@H]12 [GLA, glycyrrhetinic acid]
[1]
  Solubility (loading amount) in 1 g of PC90C10P0: 80 mg/g
[2]
  Mean droplet size of nanoemulsion after self-nanoemulsifying: 143.5 ± 0.04 nm
  PDI of nanoemulsion after self-nanoemulsifying: 0.559 ± 0.063
[3]
  Dissolution from PC90C10P0 in simulated gastric acid solution: 100%

## CCc1c2c(nc3ccc(O)cc13)-c1cc3c(c(=O)n1C2)COC(=O)[C@]3(O)CC [SN-38]
[5]
  Times more active than CPT11: 100–1000 times

## silymarin [SM]
[1]
  Solubility (loading amount) in 1 g of PC90C10P0: 130 mg/g
